Data: article PMC9953885 (Biosensors, 2023)
Where a name gives a salt, the structure may show the parent alone.

Molecular target: T1, human pancreatic lipase (hPL) (Homo sapiens, UniProt P16233)
T1 construct: gene PNLIP
T1 sequence (P16233 17-465): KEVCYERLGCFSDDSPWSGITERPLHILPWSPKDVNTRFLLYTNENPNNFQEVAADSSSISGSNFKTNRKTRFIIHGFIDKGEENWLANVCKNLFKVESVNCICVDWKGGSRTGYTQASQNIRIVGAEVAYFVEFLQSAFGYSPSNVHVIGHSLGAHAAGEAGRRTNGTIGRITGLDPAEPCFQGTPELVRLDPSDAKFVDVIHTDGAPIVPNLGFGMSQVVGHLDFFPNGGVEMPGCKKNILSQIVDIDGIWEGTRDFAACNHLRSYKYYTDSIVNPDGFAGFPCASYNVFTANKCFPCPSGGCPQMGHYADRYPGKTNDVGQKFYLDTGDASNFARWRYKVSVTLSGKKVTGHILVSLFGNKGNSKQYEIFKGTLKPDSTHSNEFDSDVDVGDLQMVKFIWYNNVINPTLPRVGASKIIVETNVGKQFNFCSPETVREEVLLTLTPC
Conditions: 10 µM; inhibitor
Description: First, we evaluated the inhibitory effect of 94 natural products derived from herbs and 94 drugs on hPL. In our high-throughput screening system, 1 ug/mL hPL was used, and the final concentration of the 94 natural products derived from herbs and 94 drugs used was 10 μM. Other conditions were the same as in the selectivity experiments. […] RLE was incubated with hPL and various enzymes, such as hCES1A, hCES2A, CA, AchE, BchE, 5-HKE, lysozyme, trypsin, thrombin, α-CT, FAP, PREP, pepsin, α-amylase, plasmin, notum and hSA, in a 100 µL incubation mixture consisting of Tris-HCl (pH = 7.4, 25 mM), NaCl (150 mM), CaCl2 (1 mM) and porcine bile salt (0.1 mg/mL) at a concentration of 1.5 µg/mL. The reaction was initiated by adding RLE to the preincubated enzyme mixture at 37 °C, and metabolite formation was determined by measuring the fluorescence intensity of resorufin at 590 nm. In addition, several amino acids (IIe, His, Trp, Val, Leu, Tyr, Ala, Thr, Pro, Asp, Lys, Met, Cys, Ser, Phe, Gly, Glu and Gln), ions (Ni^2+, Ca^2+, Na^+, K^+, Cu^2+, Zn^2+, Mg^2+, NH4^+, Cu^+, Fe^2+ and CN^-) and GSH were measured. The concentration of these interfering factors was 5 μM. […] In this case, a visual high-throughput assay was established to screen hPL inhibitors, using RLE as a fluorogenic substrate in a 96-well microplate.

Compound	% of control remaining
COc1ccc(-c2coc3cc(O)ccc3c2=O)cc1 [Formononetin]	104.25%
NS(=O)(=O)c1cc(C(=O)O)c(NCc2ccco2)cc1Cl [Furosemide]	100.00%
Nc1ccn([C@@H]2O[C@H](CO)[C@@H](O)C2(F)F)c(=O)n1 [Gemcitabine]	105.06%
COC(=O)C1=CO[C@@H](O)[C@@H]2C(CO)=CC[C@H]12 [Genipin]	99.28%
O=c1c(-c2ccc(O)cc2)coc2cc(O)cc(O)c12 [Genistein]	106.48%
C#C[C@]1(O)CC[C@H]2[C@@H]3CCC4=CC(=O)CCC4=C3C=C[C@@]21CC [Gestrinone]	66.72%
COc1cc(O)c2c(=O)cc(-c3ccc(OC)c(-c4c(O)cc(O)c5c(=O)cc(-c6ccc(O)cc6)oc45)c3)oc2c1 [Ginkgetin]	39.42%
C[C@@H]1C(=O)O[C@H]2C[C@@]34[C@H]5C[C@@H](C(C)(C)C)[C@]36[C@@H](OC(=O)[C@@H]6O)O[C@@]4(C(=O)O5)[C@]21O [Ginkgolide A]	125.97%
C[C@@H]1C(=O)O[C@H]2[C@H](O)[C@@]34[C@H]5C[C@@H](C(C)(C)C)[C@]36[C@@H](OC(=O)[C@@H]6O)O[C@@]4(C(=O)O5)[C@@]12O [Ginkgolide B]	120.07%
C[C@@H]1C(=O)O[C@H]2[C@H](O)[C@@]34O[C@@H]5OC(=O)[C@H](O)[C@@]56[C@H](C(C)(C)C)[C@H](O)C(OC3=O)[C@]64[C@@]12O (stereo partly drawn) [Ginkgolide C]	106.22%
CCC1=C(C)CN(C(=O)NCCc2ccc(S(=O)(=O)NC(=O)N[C@H]3CC[C@H](C)CC3)cc2)C1=O [Glimepiride]	90.05%
COc1cc2c(=O)c(-c3ccc(O)cc3)coc2cc1O[C@@H]1O[C@H](CO)[C@@H](O)[C@H](O)[C@H]1O [Glycitin]	99.85%
O=c1c(O)c(-c2ccc(O)cc2)oc2c(O)c(O)cc(O)c12 [Herbacetin]	83.59%
COC(=O)C[C@](O)(CCCC(C)(C)O)C(=O)O[C@@H]1C(OC)=C[C@]23CCCN2CCc2cc4c(cc2[C@H]13)OCO4 [Homoharringtonine]	74.77%
NS(=O)(=O)c1cc2c(cc1Cl)NCNS2(=O)=O [Hydrochlorothiazide]	99.42%
C[C@]12CCC(=O)C=C1CC[C@@H]1[C@@H]2[C@@H](O)C[C@@]2(C)[C@H]1CC[C@]2(O)C(=O)CO [Hydrocortisone]	56.27%
O=C1C([C@@H]2O[C@H](CO)[C@@H](O)[C@H](O)[C@H]2O)=C(O)/C(=C(O)/C=C/c2ccc(O)cc2)C(=O)C1(O)[C@@H]1O[C@H](CO)[C@@H](O)[C@H](O)[C@H]1O (stereo partly drawn) [Hydroxysafflor yellow A]	76.59%
CC(C)Cc1ccc(C(C)C(=O)O)cc1 (stereo not drawn) [Ibuprofen]	103.68%
CN(C)CCCN1c2ccccc2CCc2ccccc21 [Imipramine hydrochloride]	92.51%

Compound	% of control remaining
CC(C)=CCOc1c2occc2cc2ccc(=O)oc12 [Imperatorin]	75.61%
COc1ccc2c(c1)c(CC(=O)O)c(C)n2C(=O)c1ccc(Cl)cc1 [Indometacin]	102.95%
CC(C)Oc1ccc2c(=O)c(-c3ccccc3)coc2c1 [Ipriflavone]	84.50%
CCc1c2c(nc3ccc(OC(=O)N4CCC(N5CCCCC5)CC4)cc13)-c1cc3c(c(=O)n1C2)COC(=O)[C@]3(O)CC [Irinotecan]	105.25%
COc1cc(-c2coc3cc4c(c(OC)c3c2=O)OCO4)cc(OC)c1OC [Irisflorentin]	66.38%
C=C1C(=O)O[C@@H]2C[C@@]3(C)CCCC(=C)[C@@H]3C[C@H]12 [Isoalantolactone]	70.02%
COc1ccc(-c2cc(=O)c3c(O)cc(O)c(-c4cc(-c5cc(=O)c6c(O)cc(O)cc6o5)ccc4OC)c3o2)cc1 [Isoginkgetin]	54.78%
CC(C)=CCOc1c2ccoc2cc2oc(=O)ccc12 [Isoimperatorin]	72.90%
COc1cc(-c2oc3cc(O)cc(O)c3c(=O)c2O[C@@H]2O[C@H](CO)[C@@H](O)[C@H](O)[C@H]2O)ccc1O [Isorhamnetin-3-glucoside]	93.93%
CC[C@H]1CN2CC[C@@]3(C(=O)Nc4ccccc43)[C@@H]2C[C@@H]1/C(=C\OC)C(=O)OC [Isorhynchophylline]	87.99%
O=c1cc(-c2ccc(O)cc2)oc2cc(O)c([C@@H]3O[C@H](CO)[C@@H](O)[C@H](O)[C@H]3O)c(O)c12 [Isovitexin]	79.86%
C[C@@H]1CC[C@@]2(NC1)O[C@H]1C[C@H]3[C@@H]4CC=C5C[C@@H](O[C@@H]6O[C@H](CO)[C@@H](O[C@@H]7O[C@@H](C)[C@H](O)[C@@H](O)[C@H]7O)[C@H](O)[C@H]6O)CC[C@]5(C)[C@H]4CC[C@]3(C)[C@H]1[C@@H]2C [Khasianine]	102.50%
Nc1nnc(-c2cccc(Cl)c2Cl)c(N)n1 [Lamotrigine]	84.88%
COc1c(/C=C/C(=O)c2ccc(O)cc2)ccc(O)c1O [Licochalcone B]	58.04%
COc1c(/C=C/C(=O)c2ccc(O)c(CC=C(C)C)c2)ccc(O)c1O [Licochalcone D]	80.45%
CC1(C)O[C@H]2CC(=O)OC[C@]23[C@H]2CC[C@@]4(C)[C@H](c5ccoc5)OC(=O)[C@H]5O[C@]54[C@]2(C)C(=O)C[C@@H]13 [Limonin]	85.30%
CC#CCn1c(N2CCC[C@@H](N)C2)nc2c1c(=O)n(Cc1nc(C)c3ccccc3n1)c(=O)n2C [Linagliptin]	108.93%
CC(=O)NC[C@H]1CN(c2ccc(N3CCOCC3)c(F)c2)C(=O)O1 [Linezolid]	91.81%
O=C1C[C@@H](c2ccc(O[C@@H]3O[C@H](CO)[C@@H](O)[C@H](O)[C@H]3O)cc2)Oc2cc(O)ccc21 [Liquiritin]	105.77%

Compound	% of control remaining
CCOC(=O)N1CCC(=C2c3ccc(Cl)cc3CCc3cccnc32)CC1 [Loratadine]	96.14%
COc1ccc(CCC(=O)c2ccc(O)cc2)c(OC)c1 [Loureirin A]	67.52%
COc1cc(OC)c(CCC(=O)c2ccc(O)cc2)c(OC)c1 [Loureirin B]	79.89%
CC[C@H](C)C(=O)O[C@H]1C[C@@H](C)C=C2C=C[C@H](C)[C@H](CC[C@@H]3C[C@@H](O)CC(=O)O3)[C@H]21 [Lovastatin]	80.96%
COc1ccc(-c2cc(=O)c3c(O)c(OC)c(O)c(OC)c3o2)cc1 [Lysionotin]	84.30%
CC(=O)O[C@]1(C(C)=O)CC[C@H]2[C@@H]3C[C@H](C)C4=CC(=O)CC[C@]4(C)[C@H]3CC[C@@]21C [Medroxyprogesterone Acetate]	68.77%
Cc1coc2c1CCC(C)C2 (stereo not drawn) [Menthofuran]	108.33%
COC(=O)/C=C/c1ccc(O)c(O)c1 [Methyl caffeate]	72.74%
Cc1c(O)c(C)c2c(c1O)C(=O)[C@H](Cc1ccc3c(c1)OCO3)CO2 [Methylophiopogonanone A]	80.44%
COCCc1ccc(OCC(O)CNC(C)C)cc1 (stereo not drawn) [Metoprolol tartrate]	135.23%
Cc1ncc([N+](=O)[O-])n1CCO [Metronidazole]	78.49%
Cc1ncc2n1-c1ccc(Cl)cc1C(c1ccccc1F)=NC2 [Midazolam]	96.73%
O=c1c(O)c(-c2ccc(O)cc2O)oc2cc(O)cc(O)c12 [Morin hydrate]	96.10%
O=c1c(O)c(-c2cc(O)c(O)c(O)c2)oc2cc(O)cc(O)c12 [Myricetin]	56.43%
C[C@@H]1O[C@@H](Oc2c(-c3cc(O)c(O)c(O)c3)oc3cc(O)cc(O)c3c2=O)[C@H](O)[C@H](O)[C@H]1O [Myricitrin]	91.12%
COc1ccc2cc([C@H](C)C(=O)O)ccc2c1 [Naproxen]	116.02%
COCCOC(=O)C1=C(C)NC(C)=C(C(=O)OC(C)C)C1c1cccc([N+](=O)[O-])c1 (stereo not drawn) [Nimodipine]	98.69%
COC(=O)C1=C(C)NC(C)=C(C(=O)OCC(C)C)C1c1ccccc1[N+](=O)[O-] (stereo not drawn) [Nisoldipine]	75.08%
CCOC(=O)C1=C(C)NC(C)=C(C(=O)OC)C1c1cccc([N+](=O)[O-])c1 (stereo not drawn) [Nitrendipine]	92.86%
